Results: patent US12060588B2, “Methods of editing DNA methylation” (Whitehead Institute for Biomedical Research, priority 2016, dated 2024)

Tests used:
[1] = test system: BDNF promoter IV / BDNF expression; experiment: BDNF expression in mouse cortical neurons (RT-qPCR); format: cell-based
Procedure: (§1) FIGS. 3A-3E depict targeted demethylation of BDNF promoter IV by dCas9-Tet1 to activate BDNF in neurons. FIG. 3A provides a schematic representation of targeting BDNF promoter IV by dCas9-Tet1 (dC-T) with specific gRNAs to erase methylation and activate BDNF expression. […] Bars are mean t SD of three biological replicates. FIG. 3C provides representative confocal images for BDNF induction in FIG. 3B. Top panel: BDNF expression was induced by 50 mM KCl treatment for 6 hrs. […] Stained in red for MAP2 (top two panels) or Cherry (bottom two panels), green for BDNF, blue for DAPI and grey for dCas9. Scale bar: 50 um. FIG. 3D depicts bisulfite sequencing of neurons in FIG. 3C. […] Shown is the mean percentage±SD of two biological replicates.
FIGS. 11A-11L depict targeted demethylation of BDNF promoter IV by dCas9-Tet1 in neurons. […] PAM for each gRNA is highlighted by a red box. […] Note that cultured neurons were treated with AraC on DIV2 to halt cell division in glial cells and neural progenitors. […] FIG. 11C provides EDU labeling analysis for the mouse primary neurons over the course of KCl treatment for 24 hrs. Note that extremely few EDU positive cells were observed. Stained in red for EDU, green for MAP2 and DAPI for nuclei. Scale bar: 500 um. FIG. 11D Upper panel: provides quantification of neuronal density over the course of KCl treatment. The post-mitotic neuron density remains steadily around 4.5×10^4/cm2 over time. Bars represent mean±SD of three experimental replicates. Lower panel: provides quantification of the EDU positive cells over the course of KCl treatment. Less than 2% of the cells are EDU-positive over 24 hrs. Bars represent mean±SD of three experimental replicates. FIG. 11E provides confocal micrographs of BDNF induction by ectopic expression of dCas9-Tet1 and a set of 4 gRNAs targeting BDNF promoter IV. Stained in green for BDNF, magenta for MAP2, red for Cherry and blue for DAPI. Note that the lentiviral infection efficiency is close to 100% in these neurons. Scale bar: 50 um. […] Bars represent mean±SD of three experimental replicates. […] FIG. 11J depicts DIV3 mouse cortical neurons were treated with ABT (50 uM) for 6 hours and then treated with KCl (50 mM) for 6-hour before harvest for RT-qPCR analysis. Bars represent mean±SD of three experimental replicates. FIG. 11K depicts DIV3 mouse cortical neurons were treated with 2-Hydroxyglutarate (10 mM) for 2 hours and then treated with KCl (50 mM) for 6-hour before harvest for RT-qPCR analysis. Bars represent mean±SD of three experimental replicates. FIG. 11L depicts DIV3 mouse cortical neurons derived from wild-type or Tet1 knockout E17.5 embryos were subject to time course KCl treatment experiments (6, 9 and 12 h). Bars represent mean±SD of three experimental replicates.
DNA replication-independent active demethylation has been proposed to operate in post-mitotic neurons (Guo et al., 2011; Martinowich et al., 2003). To test whether active demethylation can be induced in post-mitotic neurons, we applied the dCas9-Tet1 system to study the regulation of the BDNF gene. BDNF expression can be induced by neuronal activity accompanied by demethylation of its promoter IV (Chen et al., 2003; Martinowich et al., 2003). We designed 4 gRNAs targeting 11 CpGs in BDNF promoter IV (FIG. 11A) to determine whether dCas9-Tet1 can activate BDNF by inducing demethylation of this promoter (FIG. 3A). Mouse cortical neurons were isolated from E17.5 embryos and cultured for two days in vitro (DIV2) following a well-established experimental procedure for producing primary neuronal culture (Ebert et al., 2013). […] Neurons at day 3 in culture (DIV3) were infected with lentiviral vectors expressing dCas9-Tet1 with or without the 4 gRNAs at almost 100% transduction efficiency (FIG. 11E). At 48-hour post infection some of the cultures were treated with KCl to induce neuronal activity. […] We performed bisulfite sequencing to examine the methylation state of BDNF promoter IV. […]

[2] = test system: C3H10T1/2 mouse embryonic fibroblast cells; experiment: Fibroblast-to-myoblast conversion assay; format: cell-based; details: for fraction of mock C3H10T1/2 cells expressing MyoD: after 5-Aza treatment (1 uM, 24-hour)
Description: FIGS. 4A-4H depict targeted demethylation of the MyoD distal enhancer by dCas9-Tet1 to facilitate conversion of fibroblasts to myoblasts. FIG. 4A provides a schematic representation of targeting the MyoD distal enhancer (DE) region in DMR-5 by dCas9-Tet1 (dC-T) with specific gRNAs. […] Cherry positive cells were FACS sorted for RT-qPCR analysis. Bars represent mean±SD of three experimental replicates. FIG. 4C bisulfite sequencing of cells in FIG. 4B. […] Shown is the mean percentage±SD of two biological replicates. […] C3H10T1/2 cells were plated as 1×10^4 cells per well in 6-well plate, and then infected with lentiviruses expressing dC-T and gRNAs targeting DMR-5, or a catalytic dead form of Tet1 (dC-dT) with target gRNAs. 24-hour post infection, cells were treated with vehicle control (HEPES buffer) or 5-Azacytidine (1 uM) for 24-hour, and then harvested after 14 days for immunofluorescence staining. Stained in green for MyoD, magenta for MHC and blue for DAPI. Scale bar: 200 um. FIG. 4F provides quantification of MyoD positive cell ratio 14-day post infection with lentiviruses expressing dC-T alone, dC-T with gRNAs targeting DMR-5, and dC-dT with the target gRNAs. […] FIG. 4H provides quantification of myotube density in MHC positive clusters with more than 2 or 5 nuclei at 14-days after infection. […] Data are quantified from 3-5 representative images for F-H. Bars represent mean±SD.
FIGS. 12A-12J depict targeted demethylation of the MyoD DMR-5 by dCas9-Tet1 and conversion of fibroblasts to myoblasts. […] PAM for each sgRNA is highlighted by a red box. FIG. 12B provides experimental scheme of the fibroblast-to-myoblast conversion assay. Briefly, C3H10T1/2 mouse embryonic fibroblast cells were plated as 1×10^4 cells per well in 6-well plate, and then infected with lentiviruses expressing dCas9-Tet1 and target gRNAs. 24-hour post infection, cells were optionally treated with 5-Azacytidine (1 uM) for 24-hour (labeled in red), and harvested for immunofluorescence staining at different time points (day-14, -16 and -25, labeled in dark blue) with medium change every other day. Scale bar: 100 um. […] Stained in green for MHC, red for MyoD and blue for DAPI. Scale bar: 200 um. FIG. 12D depicts a fraction of mock C3H10T1/2 cells expressing MyoD at different times after 5-Aza treatment. The fraction of cells expressing MyoD increases from around 6% at day 14 to around 13% at day 16 and reached around 20% at day 25. Bars represent mean±SD. FIG. 12E provides number of nuclei in MHC+ cell clusters (grouped as 1-2 and >2 nuclei per MHC+ cluster). […] Bars represent mean±SD. Data was quantified from 3-5 representative images for each group in FIG. 12D and FIG. 12E. […] Bars represent mean±SD of three experimental replicates. FIG. 12G provides representative images for C3H10T1/2 cells 16 days after infection with lentiviruses expressing dC-T and gRNAs targeting DMR-5 (MyoD distal enhancer) in a fibroblast-to-myoblast conversion assay as described in FIG. 12B. […] Stained in magenta for MHC, green for MyoD and blue for DAPI. Scale bar: 200 um. FIG. 12H depicts a fraction of MyoD positive cells 16 days after infection with lentiviruses expressing dC-T alone or with gRNAs targeting DMR-5. FIG. 12I show a number of nuclei in MHC+ cell clusters (grouped as 2-5, 6-10, 11-20 and >20 nuclei per MHC+ cluster) 16 days after infection. […] Data are quantified from 3-5 representative images for FIGS. 12H-12J. Bars represent mean±SD.
We then investigated whether targeted demethylation of DMR-5 would synergize with 5-Aza treatment to induce myotube formation (FIG. 12B). To follow the process of myotube formation after 5-Aza treatment, a time-course experiment was performed. Multi-nucleated myotube (MHC-positive) with heterogeneous sizes began to form 14 days post treatment, and both MyoD-positive cell ratio and myotube density and size then increased up to day-25 (FIGS. 12C-12E). […]

[3] = test system: BDNF promoter IV; experiment: Tet-assisted bisulfite sequencing (TAB-seq) of 5-hmC in BDNF promoter IV; format: cell-based, mouse; details: KCl treatment for 6 hours
Procedure: FIGS. 11A-11L depict targeted demethylation of BDNF promoter IV by dCas9-Tet1 in neurons. […] PAM for each gRNA is highlighted by a red box. […] Note that cultured neurons were treated with AraC on DIV2 to halt cell division in glial cells and neural progenitors. […] FIG. 11C provides EDU labeling analysis for the mouse primary neurons over the course of KCl treatment for 24 hrs. Note that extremely few EDU positive cells were observed. Stained in red for EDU, green for MAP2 and DAPI for nuclei. Scale bar: 500 um. FIG. 11D Upper panel: provides quantification of neuronal density over the course of KCl treatment. The post-mitotic neuron density remains steadily around 4.5×10^4/cm2 over time. Bars represent mean±SD of three experimental replicates. Lower panel: provides quantification of the EDU positive cells over the course of KCl treatment. Less than 2% of the cells are EDU-positive over 24 hrs. Bars represent mean±SD of three experimental replicates. FIG. 11E provides confocal micrographs of BDNF induction by ectopic expression of dCas9-Tet1 and a set of 4 gRNAs targeting BDNF promoter IV. Stained in green for BDNF, magenta for MAP2, red for Cherry and blue for DAPI. […]
Because post-mitotic neurons were used for these experiments, loss of methylation was likely due to active demethylation. […] Similarly, 5-hmC was also detected after KCl treatment (FIG. 11I). […]

[4] = test system: BDNF promoter IV; experiment: Bisulfite sequencing of BDNF promoter IV in mouse cortical neurons; format: cell-based; details: KCl 50 mM, 6 hours
Procedure: as §1
DNA replication-independent active demethylation has been proposed to operate in post-mitotic neurons (Guo et al., 2011; Martinowich et al., 2003). To test whether active demethylation can be induced in post-mitotic neurons, we applied the dCas9-Tet1 system to study the regulation of the BDNF gene. BDNF expression can be induced by neuronal activity accompanied by demethylation of its promoter IV (Chen et al., 2003; Martinowich et al., 2003). We designed 4 gRNAs targeting 11 CpGs in BDNF promoter IV (FIG. 11A) to determine whether dCas9-Tet1 can activate BDNF by inducing demethylation of this promoter (FIG. 3A). […]

O=C(O)CCC(O)C(=O)O (stereo not drawn) [2-hydroxygluterate, 2-Hydroxyglutarate, reference compound]
effect on induction of BDNF expression by KCl treatment ([1]; 10 mM for 2 hours, then KCl 50 mM for 6-hour): completely abolished the induction of BDNF expression by KCl treatment

Nc1ncn([C@@H]2O[C@H](CO)[C@@H](O)[C@H]2O)c(=O)n1 [5-Aza, 5-Azacytidine]
MHC+ myotube formation ([2]; 5-Aza (1 uM, 24-hour), 14 days after infection): induces MHC+ myotube formation | fraction of mock C3H10T1/2 cells expressing MyoD ([2]; day 14): around 6% | fraction of mock C3H10T1/2 cells expressing MyoD ([2]; day 16): around 13% | fraction of mock C3H10T1/2 cells expressing MyoD ([2]; day 25): around 20%

C[C@]1(c2nc3c(C(N)=O)cccc3[nH]2)CCCN1 [ABT-888, reference compound]
effect on activation of BDNF by KCl treatment ([1]; 50 uM for 6 hours, then KCl 50 mM for 6-hour): reduced the activation of BDNF by KCl treatment

[Cl-].[K+] [KCl, reference compound]
5-hmC level in BDNF promoter IV [3]: detected | BDNF expression ([1]; KCl 50 mM treatment of DIV3 neurons): induced BDNF expression | methylation of BDNF promoter IV CpGs (positions relative to transcription start site) [4]: induced demethylation of CpGs at positions of −148, −66 and 19
